In US5312817A, “Treatment of fatigue syndrome” (priority 1991, dated 1994):
Where a name gives a salt, the structure may show the parent alone. Read-outs that look alike come from different tables or passages of the source.

Legend:
[1] = molecular target: butyrylcholinesterase (pseudocholinesterase) in serum (Homo sapiens, UniProt P06276); details: for Serum ChE activity: no addition = 1.00, blood samples from 3 patients
Description: SIGMA DIAGNOSTICS® CHOLINESTERASE (PTC) kit, available from Sigma Diagnostics, can be used for determining the activity and selectivity of cholinesterase inhibitors. In the following, it is illustrated how the kit is used for the determination of the activity and selectivity of Nivalin (Galanthamine hydrobromide).
Reactions involved in the cholinesterase assay are as follows: [drawing 3]
Thiocholine+5,5'-Dithiobis-2-Nitrobenzoic Acid→5-Thio-2-NitrobenzoicAcid
5-Thio-2-Nitrobenzoic Acid is assessed by measuring the absorbance at 405 nm. The rate of change in absorbance at 405 nm is directly proportional to cholinesterase activity.
The activity of erythrocyte cholinesterase may be calculated on the basis of the measurement of butyrylcholinesterase (pseudocholinesterase) in serum and cholinesterase in hemolyzed whole blood (hemolysate), both measured simultaneously by the method described above, and evaluated according to the hematocrit value according to the formula
(§1) HChE=(EChE×Hct*)+(PChE×(1--Hct*))
In the above formulae, EChE is erythrocyte cholinesterase activity, PChE is plasma cholinesterase activity, HChE is hemolysate cholinesterase activity, and Hct is hematocrit value of the sample.
Another way of assessing the cholinesterase activity is to measure the plasma cholinesterase and the cholinesterase in purified hemolyzed erythrocytes. By doing this, the values are obtained directly.
Blood samples from 3 patients were tested with the Sigma test. The tests were carried out with samples where no Nivalin was added and with samples where 1.25 μg/ml Nivalin and 2.5 μg/ml were added in vitro.

[2] = cited from earlier work
[3] = test system: cholinesterase in hemolyzed whole blood (hemolysate); experiment: Sigma Diagnostics Cholinesterase (PTC) kit, hemolysate of patient blood samples; format: biochemical, human; details: for Hemolysate ChE activity: no addition = 1.00, blood samples from 3 patients
Description: as §1
By doing this, the values are obtained directly.
The results are shown below in table 1.1.

[4] = test system: acetylcholinesterase as opposed to butyrylcholinesterase; details: cited from earlier work; for selectivity for acetylcholinesterase as opposed to butyrylcholinesterase: in vitro method by Thomsen et al.
[5] = Side effects in treated patients; format: in vivo, human
Protocol: A complete elimination of metabolites and galanthamine takes place in 72 hours. […] The common side effects, other than the ones related to cholinergic crisis, are either nausea or vomiting, and a slight headache. However, these side effects are rare, especially when care is taken to start medication in low doses such as mentioned above.
Although galanthamine must be considered as having a high degree of safety, there have been certain side effects in a few of the patients treated. These have been slight nausea in about 30% of the cases (the nausea, however, disappearing after about one week of treatment), vomiting and dizziness in 5-10% of the patients (also disappearing after about one week of treatment in most cases), and more severe side effects in 4-6% of the patients. These more severe side effects must be considered acceptable in view of the effect of the drug; however, in patients who are suspected of developing arrhythmia, it should be considered to administer, e.g., atropine in combination with the treatment according to the invention.

[6] = test system: butyrylcholinesterase in plasma; details: after 10 mg i.v., healthy volunteer; cited from earlier work
[7] = use as anticurare agent in anesthesiology in Eastern Block countries since around 1958; cited from earlier work
[8] = test system: acetylcholinesterase in the erythrocytes; details: within 2 minutes after 10 mg i.v., healthy volunteer; cited from earlier work
[9] = test system: auditory evoked potentials in the brain stem; experiment: Auditory brain stem response; format: in vivo, human
Protocol: The auditory brain stem response test is based on the observation that manio-depressive patients are hypersensitive to cholinergic influences, one manifestation hereof being hypersensitivity to auditory signals as assessed by the increase of amplitude of auditory evoked potentials in the nuclei of the auditory system in the brain stem, i.e. on the "brain side" of the blood brain barrier. […] See also example 3.
Electrical potentials caused by click-stimulation in the ears are measured with electrodes positioned outside on the head of the examined parson. In the configuration of the potentials are components from the brain stem and the brain.
A patient suffering from bipolar manio-depression in the depressive stats and a healthy person, respectively.
Tablet containing 10 mg galanthamine

[10] = test system: persons suffering from Chronic Fatigue Syndrome; experiment: Double-blind cross-over trial in Chronic Fatigue Syndrome: clinician's transfer to alternative treatment; format: in vivo, human; details: after two weeks of treatment; 9/9 on placebo; exact p=0.00006
Description: (§2) 20 persons suffering from Chronic Fatigue Syndrome fulfilling the criteria described in example 4 or 5.
(§3) Each patient received treatment for a minimum of 8 weeks. The first 2 weeks incorporated an escalating schedule to stabilise the patient on an appropriate dose. The trial was running for eight weeks.
(§4) 11 of the persons were randomly allocated to galanthamine treatment, and the remaining 9 to placebo treatment. The protocol for the trial made provisions for the clinician to opt after two weeks of treatment for transfer to the alternative treatment.

[11] = test system: persons suffering from Chronic Fatigue Syndrome; experiment: Double-blind cross-over trial in Chronic Fatigue Syndrome: Cognitive Failures Questionnaire; format: in vivo, human
Description: as §2, §3
11 of the persons were randomly allocated to galanthamine treatment, and the remaining 9 to placebo treatment. The protocol for the trial made provisions for the clinician to opt after two weeks of treatment for transfer to the alternative treatment. […]

[12] = test system: persons suffering from Chronic Fatigue Syndrome; experiment: Double-blind cross-over trial in Chronic Fatigue Syndrome: patient-completed visual analogue scales; format: in vivo, human; design: Sleep Disturbance visual analogue scale, mean / Fatigue visual analogue scale, mean / Myalgia visual analogue scale, mean / Work Capacity/Satisfaction visual analogue scale, mean / Memory visual analogue scale, mean / Dizziness visual analogue scale, mean / Sleep visual analogue scale, mean / Work visual analogue scale, mean: scale not given here
Description: as §2, §3, §4
(§5) The data available for the evaluation covered groups of patient-completed visual analogue scales to assess sleep disturbance, fatigue, myalgia, work capacity/satisfaction, and dizziness, together with time per response on a visual search task.
In order to assess any underlying, overall performance difference between the galanthamine and placebo treated patients, the median (the statistic which differentiates the upper and lower 50% of scores) of the changes across all scales, was computed for the placebo treated patients.

[13] = test system: persons suffering from Chronic Fatigue Syndrome; experiment: Double-blind cross-over trial in Chronic Fatigue Syndrome: visual search task; format: in vivo, human
Description: as §2, §3, §4, §5

[14] = format: physicochemical; details: room temperature
Protocol: Galanthamine and its acid addition salts form crystals. […] If necessary, pharmaceutically-acceptable suspension aids may be employed. Typically, such a suspension will be employed at a concentration of 0.1-50 mg/ml, such as 1-50 mg/ml, more commonly 5-40 mg/ml, for example, 5-30 mg/ml or 10-40 mg/ml, such as 10-30 mg/ml, especially 20-30 mg/ml of galanthamine. As mentioned above, typical dosage rates when administering galanthamine by injection are the range 0.01-20 mg per day depending upon the patient. […] In other cases, dosages as low as 5 mg and as high as 200 mg per day may be appropriate for persons in this body weight range.

[15] = 2 hours after 10 mg tablet, treated compared to untreated
[16] = all galanthamine treated patients, 8 Weeks, N = 17
[17] = all galanthamine treated patients, Baseline, N = 19
[18] = all galanthamine treated patients, 1 Week, N = 19
[19] = all galanthamine treated patients, 2 Weeks, N = 19
[20] = all galanthamine treated patients, 4 Weeks, N = 18
[21] = randomly allocated to galanthamine (N=11), After 1 Week
[22] = randomly allocated to galanthamine (N=11), After 2 Weeks
[23] = randomly allocated to galanthamine (N=11), Baseline

Sequence of butyrylcholinesterase (pseudocholinesterase) in serum (P06276 29-602): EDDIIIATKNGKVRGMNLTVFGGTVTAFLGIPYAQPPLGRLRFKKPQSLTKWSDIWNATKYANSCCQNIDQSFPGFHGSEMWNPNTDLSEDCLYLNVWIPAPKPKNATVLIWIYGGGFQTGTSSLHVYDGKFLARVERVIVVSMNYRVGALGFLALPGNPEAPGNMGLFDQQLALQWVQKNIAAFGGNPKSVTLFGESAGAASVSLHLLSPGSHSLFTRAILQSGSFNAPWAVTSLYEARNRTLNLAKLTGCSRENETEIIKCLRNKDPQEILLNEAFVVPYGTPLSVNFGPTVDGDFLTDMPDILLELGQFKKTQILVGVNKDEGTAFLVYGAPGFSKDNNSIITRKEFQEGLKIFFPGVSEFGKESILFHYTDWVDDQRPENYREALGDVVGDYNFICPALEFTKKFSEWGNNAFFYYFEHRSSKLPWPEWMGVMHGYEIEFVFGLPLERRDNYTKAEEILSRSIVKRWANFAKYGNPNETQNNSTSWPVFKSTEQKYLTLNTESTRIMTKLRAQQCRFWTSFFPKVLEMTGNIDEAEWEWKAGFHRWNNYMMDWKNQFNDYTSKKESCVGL

For `COc1ccc2c3c1O[C@H]1C[C@@H](O)C=C[C@@]31CCN(C)C2` [galanthamine hydrobromide, Galanthamine hydrobromide], the “Serum ChE activity” value ([1]; 1.25 μg/ml added in vitro) was 0.98, the “Serum ChE activity” value ([1]; 2.50 μg/ml added in vitro) was 0.97 and the “change of serum cholinesterase activity on addition” value ([1]; in words) was “do not show any statistically significant change”. The elimination half life ([2]; in vivo) was “over four”, the “absorption from the gut” value ([2]; in words) was “absorbed rapidly from the gut” and the “passage of the blood brain barrier” value ([2]; in words) was “transverses the blood brain barrier easily”. The renal elimination ([2]; in words) was “practically complete renal elimination”, the “Hemolysate ChE activity” value ([3]; 1.25 μg/ml added in vitro) was 0.96 and the “Hemolysate ChE activity” value ([3]; 2.50 μg/ml added in vitro) was 0.86. The “change of hemolysate cholinesterase activity with increased concentration” value ([3]; in words) was “significant reduction” and the “selectivity for acetylcholinesterase as opposed to butyrylcholinesterase” value ([4]; hydrobromide) was 50 fold.
In the case of `COc1ccc2c3c1O[C@H]1C[C@@H](O)C=C[C@@]31CCN(C)C2` [galanthamine], the “slight nausea, share of cases” value ([5]; disappearing after about one week of treatment) is reported as “about 30%”, the “vomiting and dizziness, share of patients” value ([5]; disappearing after about one week of treatment in most cases) is reported as 5-10% and the “more severe side effects, share of patients” value ([5]; human, in vivo) is reported as 4-6%. For the same molecule, the “inhibition of butyrylcholinesterase in plasma” value [6] was “no inhibition”, the “liver toxicity or serious side effects” value [7] was “without any reported case of liver toxicity or serious side effects” and the “inhibition of acetylcholinesterase in the erythrocytes” value [8] was 65%. The “amplitude of auditory brain stem response, depressive patient” value [9, 15] was “dramatically increase of the amplitude”, the “auditory brain stem response potentials, healthy person” value [9, 15] was “potentials do not change” and the “ability to cross the blood-brain barrier” value ([9]; concluded from change of potentials in the depressed person) was “must be able to cross the blood-brain barrier”. The “patients transferred by the clinician to the alternative treatment (failed to benefit)” value [10] was 1/11, the “Cognitive Failures Questionnaire, mean (standard error)” value ([11]; 672 h) was 40.94 (3.87) and the “Cognitive Failures Questionnaire, mean (standard error)” value [11, 16] was 38.47 (3.71). The “Cognitive Failures Questionnaire, mean (standard error)” value [11, 17] was 47.74 (3.56), the “time to complete elimination of metabolites and galanthamine” value ([2]; in vivo) was 72 h and the “duration of an effective concentration” value ([2]; warranted by elimination half life, probably at least 6 hours) was “at least 4 hours”. For the same molecule, the “selectivity for acetylcholinesterase as opposed to butyrylcholinesterase” value [4] was “about 50 fold”, the “in vitro selectivity for acetylcholinesterase opposed the effect on butyrylcholinesterase” value ([4]; ratio, as reported by Thomsen, Life Sciences 46) was 50 to 1 and the “Dizziness visual analogue scale, mean” value [12, 18] was 8.96. For the same molecule, the “Fatigue visual analogue scale, mean” value [12, 18] was 26.63, the “Memory visual analogue scale, mean” value [12, 18] was 5.41 and the “Myalgia visual analogue scale, mean” value [12, 18] was 14.25. For the same molecule, the “Sleep visual analogue scale, mean” value [12, 18] was 17.26, the “Work visual analogue scale, mean” value [12, 18] was 10.22 and the “Dizziness visual analogue scale, mean” value [12, 19] was 6.94. For the same molecule, the “Fatigue visual analogue scale, mean” value [12, 19] was 20.64, the “Memory visual analogue scale, mean” value [12, 19] was 4.79 and the “Myalgia visual analogue scale, mean” value [12, 19] was 11.24. For the same molecule, the “Sleep visual analogue scale, mean” value [12, 19] was 15.51, the “Work visual analogue scale, mean” value [12, 19] was 8.21 and the “Dizziness visual analogue scale, mean” value [12, 20] was 6.30. For the same molecule, the “Fatigue visual analogue scale, mean” value [12, 20] was 17.42, the “Memory visual analogue scale, mean” value [12, 20] was 4.33 and the “Myalgia visual analogue scale, mean” value [12, 20] was 12.01. For the same molecule, the “Sleep visual analogue scale, mean” value [12, 20] was 11.89, the “Work visual analogue scale, mean” value [12, 20] was 7.40 and the “Dizziness visual analogue scale, mean” value [12, 16] was 4.77. The “Fatigue visual analogue scale, mean” value [12, 16] was 17.81, the “Memory visual analogue scale, mean” value [12, 16] was 4.50 and the “Myalgia visual analogue scale, mean” value [12, 16] was 10.51. The “Sleep visual analogue scale, mean” value [12, 16] was 10.88, the “Work visual analogue scale, mean” value [12, 16] was 7.34 and the “Dizziness visual analogue scale, mean” value [12, 17] was 8.39. For the same molecule, the “Fatigue visual analogue scale, mean” value [12, 17] was 28.00, the “Memory visual analogue scale, mean” value [12, 17] was 5.10 and the “Myalgia visual analogue scale, mean” value [12, 17] was 16.32. For the same molecule, the “Sleep visual analogue scale, mean” value [12, 17] was 19.45, the “Work visual analogue scale, mean” value [12, 17] was 9.21 and the “galanthamine treated patients changes on the analogue scales that fall above the placebo median” value ([12]; first two weeks of treatment, across all scales, exact p=0.033) was 68.18%. For the same molecule, the “Dizziness visual analogue scale, mean” value [12, 21] was 9.00, the “Fatigue visual analogue scale, mean” value [12, 21] was 29.76 and the “Memory visual analogue scale, mean” value [12, 21] was 5.89. For the same molecule, the “Myalgia visual analogue scale, mean” value [12, 21] was 15.95, the “Sleep Disturbance visual analogue scale, mean” value [12, 21] was 17.90 and the “Work Capacity/Satisfaction visual analogue scale, mean” value [12, 21] was 11.61. For the same molecule, the “Dizziness visual analogue scale, mean” value [12, 22] was 8.79, the “Fatigue visual analogue scale, mean” value [12, 22] was 25.21 and the “Memory visual analogue scale, mean” value [12, 22] was 5.62. The “Myalgia visual analogue scale, mean” value [12, 22] was 13.58, the “Sleep Disturbance visual analogue scale, mean” value [12, 22] was 18.42 and the “Work Capacity/Satisfaction visual analogue scale, mean” value [12, 22] was 9.64. The “Dizziness visual analogue scale, mean” value [12, 23] was 9.05, the “Fatigue visual analogue scale, mean” value [12, 23] was 29.41 and the “Memory visual analogue scale, mean” value [12, 23] was 5.31. For the same molecule, the “Myalgia visual analogue scale, mean” value [12, 23] was 17.58, the “Sleep Disturbance visual analogue scale, mean” value [12, 23] was 20.78 and the “Work Capacity/Satisfaction visual analogue scale, mean” value [12, 23] was 9.43. For the same molecule, the “average time per response on a visual search task, mean (standard error)” value (“average time per response … (standard error)” below) ([13]; 336 h) was 5.51 (0.43), the “average time per response … (standard error)” value [13, 18] was 6.24 (0.40) and the “average time per response … (standard error)” value [13, 20] was 5.83 (0.40). For the same molecule, the “average time per response … (standard error)” value [13, 16] was 5.25 (0.31), the “average time per response … (standard error)” value [13, 17] was 6.79 (0.36) and the solubility in water [14] was “only sparingly soluble”.
